Several values for one entry are separate records, joined by “and”; a condition that tells them apart may be missing. Identical values can stand only once. Like-named read-outs stand apart in the source and are kept apart here.
What was measured:
[1] = target: T1, SARS‐CoV‐2 PL^pro (Severe acute respiratory syndrome coronavirus 2, UniProt P0DTD1); assay: biochemical
[2] = target: T1, SARS‐CoV‐2 PL^pro; conditions: read-out: Reported IC50, cited from earlier work
[3] = target: T1, SARS‐CoV‐2 PL^pro; conditions: Fluorescence, cited from earlier work
[4] = 0.2 μM PL^pro, 2.0 μM nsp2/3 peptide 2, 50 mM Tris pH 8.0, n=2, mean±SD, read-out: SPE‐MS IC50

Molecule	PL^pro inhibition in SPE‐MS assay (in words) [1]	IC50 ([1]; SPE‐MS IC50)	also measured
Cc1cc(O)c2c(=O)c3c(O)cc(O)c4c5c(O)cc(O)c6c(=O)c7c(O)cc(C)c8c1c2c(c34)c(c78)c65 [Hypericin]	did not inhibit	> 50 µM	
COCCn1c2c([n+](Cc3cnccn3)c1C)C(=O)c1ccccc1C2=O [YM‐155, sepantronium bromide]		> 50 µM	
CCOC(=O)C[C@H](NC(=O)[C@H](C)NC(=O)[C@@H](NC(=O)OCc1ccccc1)C(C)C)C(=O)COC(=O)c1c(Cl)cccc1Cl [SDZ‐224015]	does not inhibit		IC50 [1, 4]: > 50 µM
CC(=O)OC[C@H]1O[C@@H]([S-])[C@H](OC(C)=O)[C@@H](OC(C)=O)[C@@H]1OC(C)=O.CCP(CC)CC.[Au+] [auranofin]	potently inhibit		
CC(=O)Nc1ccc(C)c(C(=O)N[C@H](C)c2cccc3ccccc23)c1 [PL^pro inhibitor 6]		~12.5 µM and 12.5 µM	
COc1cc2ncnc(Nc3ccc(F)c(Cl)c3)c2cc1NC(=O)/C=C/CN1CCCCC1 [dacomitinib]	inactive		IC50 [1, 4]: > 50 µM; IC50 ([2]; FRET‐based assays, ref 8b): 3 to 5 µM
CN(C)C/C=C/C(=O)Nc1cc2c(Nc3ccc(F)c(Cl)c3)ncnc2cc1O[C@H]1CCOC1 [afatinib]	inactive	> 50 µM	IC50 [2]: 11 to 16 µM
Cc1ccc(-n2sc3ccccc3c2=O)cc1 [PBIT, 2‐(para‐tolyl)benzo[d]isothiazol‐3(2H)‐one]		~0.3 µM and 0.3 µM	
CC(C)(F)C[C@H](N[C@@H](c1ccc(-c2ccc(S(C)(=O)=O)cc2)cc1)C(F)(F)F)C(=O)NC1(C#N)CC1 [MK‐0822, odanacatib]	does not inhibit		IC50 [1, 4]: > 50 µM
C[C@H]1COC2=C1C(=O)C(=O)c1c2ccc2c1CCCC2(C)C [cryptotanshinone]	did not, at least efficiently, inhibit		
Cbz‐RLRGG‐Amc			Km ([3]; ref 14): 6.9 ± 1.4 µM; Km ([3]; ref 18): 70.9 ± 10.2 µM
